Usually pIC50 stands for the IC50 on a negative log10 scale, so that one unit is a factor of ten. For orientation: stoichiometry N means a count of units in the complex or per binding partner.

The record followed here is publication PMC11148114 (FEBS Open Bio, 2024).

pIC50: −log10 of the molar value.

For experiment [1], the target named is T1, Staphylococcus aureus lipase (SAL) (Staphylococcus aureus, UniProt A0A0U1MWF9).
T1 construct: gene lip; one Ca and one Zn per monomer
Nature of the experiment: p-nitrophenyl butyrate hydrolysis, absorbance […] nm. Format: biochemical.

Experiment [2] concerns the target Staphylococcus aureus lipase (Staphylococcus aureus). In words: SEC + other: SEC-SAXS. On the technique in general: SEC sorts molecules by how far they enter the pores of the column.

In experiment [1], `CCCCCCCCCCC/C=C\CCCCC(=O)O` [PSA, petroselinic acid] had a pIC50 of 5.47.

In turn, `CCCCCCCCCCC/C=C\CCCCC(=O)OC` [PSM, petroselinic acid methyl ester] had a pIC50 in experiment [1] of 4.98.

Consider “Staphylococcus aureus lipase (from UniProt A0A1R3UHM3 1-645) (enzyme)”, for which the stoichiometry N in experiment [2] turned out to be 2.
